# Test results taken from EP2730585B1, “PROTEIN-P[…] OBTAINED FROM TISSUES OF EMBRYOS OF HOOFED ANIMALS , USE ON SKIN TISSUE, METHOD FOR PRODUCING SAID COMPLEX AND PHARMACEUTICAL COMPOSITION” (Aktsionernoe Obschestvo "Pharm-Sintez", priority 2011, dated 2012).
# Test system: mice marrow cells
# Details: 20 mg/kg
# Description: The study objective was detection and quantitative estimate of cytogenetic (mutagenic) activity of pharmacologic substances in polychromatophil cells (PCC) of mammal marrow. The method is based on microscopic recording of cells with micronuclei.
# The experiments were performed to 2 months old male and female F1 (CBAx C57BI6/J) cross-breed mice weighing 18-20 g. Each group included 6 animals. The animals were kept at 12 hours light pattern with free food and water access. Animal experiments for assessment of mutagenic properties of the protein/polypeptide complex with single and five-time dosing were conducted in compliance with official records. Three sessions of experiments were carried out with corresponding controls: therapeutic dose was tested on male animals with a single introduction; subtoxic dose was tested on male animals with a single introduction; therapeutic dose was tested on male animals with a single introduction; subtoxic dose was tested on male animals and female with five-time introduction.
# Taking into account that the possible presumed method for usage of the PPC at a clinic was intracutaneous, subcutaneous introduction, and external application, in this study subcutaneous introduction of the substance to mice was used. The PPC complex dosing for assessment of mutagenic activity was calculated based on the maximum human recommended daily therapeutic dose (TD). Subcutaneous introduction of PPC was recommended in the amount of 0.2 to 6 ml at 0.1 mg/ml concentration. In this case, a human therapeutic dose (TD), including a child's dose, can be 0.08 mg/kg/daily. In order to calculate an experiment dosing for mice, a conversion factor is recommended that takes into account a human or animal body surface area to weight ratio. In our study, it was 8.33. Therefore, the mice TD was approximately 8.33 x human TD (0.7 mg/kg).
# As a subtoxic dose, 10mg/kg, the maximum possible in this experiment conditions dosing was used, as the substance was presented in 0.1 mg/ml concentration, and the normally used amount of substance for mice is 0.1 ml per 10 g. […]
smiles,measurement,setting,value
"O=P1(N(CCCl)CCCl)NCCCO1 (stereo not drawn) [Cyclophosphamide, cyclophosphamide]",polychromatophilic to normochromatic erythrocytes ratio,compared to control P<0.005,found to shift to the latter
same,frequency of micronucleus cells,male mice,62.1%
same,increased frequency of micronucleus cells,"male mice, against reference, P<0.001",19.6 times
